Data taken from PMC5218480 (PLoS ONE, 2017).

Tested on: MV-4-11 cells
Assay: Gene expression microarray analysis (Affymetrix PrimeView) and GSEA
Assay type: cell-based, human
Conditions: ProbeSet 11754607_s_at; LIST B

## Nc1ccc(-c2cccs2)cc1NC(=O)c1ccc2c(c1)cc(C1CC1)n2CCN1CCOCC1 [ACY-1035]
  RFU, HSP90B1 /// MIR3652: 2548.05 RFU
